Measured values as given in BindingDB's records for PubMed 32942081 (Jamia Millia Islamia, 2020).

Biological target: T1, Amine oxidase [flavin-containing] B (Homo sapiens, UniProt P27338)
T1 sequence (P27338 whole entry): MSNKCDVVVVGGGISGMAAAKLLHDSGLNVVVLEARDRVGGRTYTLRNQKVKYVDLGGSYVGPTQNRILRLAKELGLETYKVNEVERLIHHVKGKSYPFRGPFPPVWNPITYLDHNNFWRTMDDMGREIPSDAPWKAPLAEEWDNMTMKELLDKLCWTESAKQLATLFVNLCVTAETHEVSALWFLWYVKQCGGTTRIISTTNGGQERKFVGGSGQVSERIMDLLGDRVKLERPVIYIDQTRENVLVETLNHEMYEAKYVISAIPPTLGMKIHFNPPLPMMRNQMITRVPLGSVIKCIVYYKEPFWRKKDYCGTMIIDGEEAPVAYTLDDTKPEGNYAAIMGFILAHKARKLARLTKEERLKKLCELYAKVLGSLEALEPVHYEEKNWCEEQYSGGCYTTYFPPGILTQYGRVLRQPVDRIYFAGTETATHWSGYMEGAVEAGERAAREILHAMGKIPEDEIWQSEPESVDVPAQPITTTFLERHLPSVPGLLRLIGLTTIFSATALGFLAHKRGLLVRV
Assay: Inhibition of human MAO-B using tyramine as substrate by amplex red assay

IC50: 1.9 nM
SMILES: Cc1ccc(C2=NO[C@@H](c3ccc(Cl)c(Cl)c3)C2)cc1
